Assays:
MCF10A p53+/+ cell line = test: RT-PCR of cell cycle progression gene mRNA after 5-FU exposure; format: cell-based, human; details: 300 μM 5-FU for 24 h
Method: (§1) FIG. 2. […] P53 mutant MDA-MB-231 cells, p53wt MCF10A cells, and MCF10A cells with biallelic frameshift mutation in the p53 gene were treated or untreated with 300uM of 5-FU for 24 h. NMD was inhibited or not with 10 mM caffeine for 4 h before cytoplasmic RNA isolation. “*” symbols indicate RT-PCR amplicons with retained introns.
(§2) The following breast cell lines were used: MDA-MB-231 p53−/−, MCF10A p53+/+ cell line and the derivative of MCF10A p53−/−, all treated or untreated with 300 μM of 5-FU for 24 h. In addition, the NMD pathway was inhibited or not inhibited with caffeine for 4 h before cytoplasmic RNA isolation in order to detect the mRNA species that are degraded due to stop codons contained within retained introns.

MCF10A p53−/− = test: RT-PCR analysis of intron retention after 5-FU exposure; format: cell-based, human; details: 300 μM 5-FU for 24 h
Method: as §1, §2

MDA-MB-231 p53−/− = test: as above; format: cell-based, human; details: 300 μM 5-FU for 24 h
Method: as §1, §2

MCF10A p53−/− KO cells = test: RNA-Seq detection of CiPAS (retained-intron polypeptides); format: cell-based, human; details: cells treated with 5-FU and caffeine, not detected with caffeine alone
Source text: (§3) The following Table 1 provides predicted-CiPAS and includes polypeptide sequences encoded by introns detected with high confidence in RNA-Seq generated from MDA-MB-231 and MCF10A p53−/− KO cells treated with 5-FU and caffeine and not detected in cells treated with caffeine alone. 38 and 76 CiPAS were detected in MDA-MB-231 and MCF10A p53−/− KO cells, respectively, including 18 shared CiPAS. Certain representative and non-limiting chemo-neoepitopes encoded by the CiPaS sequences are shown in bold, with overlapping amino acids in italics.

MDA-MB-231 = test: as above; format: cell-based, human
Source text: as §3

Meth A tumor cells = test: Tumor challenge with 5FU-treated or untreated Meth A cells, tumor growth; format: in vivo, BALB/cJ mice; details: for growth of 5-FU treated vs un-treated Meth A cells in vivo (AUC): FIG. 3A, in vitro 5-FU treatment alone, P=0.07; for growth of 5-FU-treated vs un-treated Meth A cells (AUC) in mice previously immunized with 5-FU-treated 4T1 cells: challenge one week after 4T1, P=0.003
Method: (§4) FIG. 3. BALB/cJ mice were challenged (on the left flank) at day 0 with 150,000 5FU- treated or untreated 4T1 tumor cells. Seven days after the first tumor challenge, they were challenged (on the right flank) with 95,000 5FU- treated or untreated Meth A tumor cells and growth of both tumors was measured. […] Each line represents tumor growth in a single mouse. […] B. (Top panel) 4T1 (un-treated or in vitro-5FU treated) growth curves in 5FU-treated mice (5FU i.p. 100 mg/kg at day -7, 50 mg/kg at day 0 and 20 mg/kg every three days after the first tumor challenge). […] (Bottom panel) The same mice as the top panel were challenged with un-treated or 5FU-treated Meth A cells, one week after challenge with 4T1 cells.
(§5) As known in the art, 4T1 cells are a breast cancer cell line derived from the mammary gland tissue of mouse. Meth A cancer cells are methyl-cholantrene-induced mouse sarcoma cells. […] This Example analyzes whether treatment with 5-FU generates new antigenic entities (such as CiPAS), and if treatment of both cell types produces the same antigens in both cells. If this process occurs, the antigens should be processed and presented identically in both cells of the BALB/c haplotype.
(§6) First, we tested if treatment of cells in vitro with 5-FU, in and of itself, makes the cancer cells grow differently because of cell death, or another phenomenon.

4T1 tumor cells = test: Tumor challenge with 5FU-treated or untreated 4T1 cells, tumor growth; format: in vivo, BALB/cJ mice; details: FIG. 3B top, 5FU-treated mice (i.p. 100 mg/kg day -7, 50 mg/kg day 0, 20 mg/kg every three days)
Method: as §4, §5, §6

## O=c1[nH]cc(F)c(=O)[nH]1 [5-FU, 5-fluorouracil]
MCF10A p53+/+ cell line; data not shown
  MCM10 mRNA in response to 5-FU: repressed
MCF10A p53+/+ cell line; only in MCF10A cells with p53+/+
  transcription of the mRNA of the CCNE2 cell cycle progression gene in response to 5-FU: repressed
MCF10A p53−/−
  extent of retention of 6th intron of the CCNE2 gene: the whole intron is retained
MCF10A p53−/−; only in cells with mutant p53
  intron retention in MCM10 and CCNE2 genes in response to 5-FU: intron retention
MDA-MB-231 p53−/−
  extent of retention of 6th intron of the CCNE2 gene: only part of the 6th intron of the CCNE2 gene is retained
MDA-MB-231 p53−/−; only in cells with mutant p53
  intron retention in MCM10 and CCNE2 genes in response to 5-FU: intron retention
MCF10A p53−/− KO cells
  number of CiPAS detected: 76 CiPAS
MDA-MB-231; cells treated with 5-FU and caffeine, not detected with caffeine alone
  number of CiPAS detected: 38 CiPAS
MDA-MB-231; shared between MDA-MB-231 and MCF10A p53−/− KO cells, 5-FU and caffeine
  number of shared CiPAS: 18 CiPAS
Meth A tumor cells
  growth of 5-FU treated vs un-treated Meth A cells in vivo (AUC): grow identically
Meth A tumor cells; listed as 5FU
  growth of 5-FU treated vs un-treated Meth A cells in vivo (AUC): grow similarly
Meth A tumor cells; FIG. 3B bottom
  slower growth of 5-FU-treated Meth A cells in mice previously challenged with 5-FU-untreated 4T1 cells: not seen
  growth of 5-FU-treated vs un-treated Meth A cells (AUC) in mice previously immunized with 5-FU-treated 4T1 cells: grow more slowly
Meth A tumor cells; FIG. 3B bottom, listed as 5FU
  growth of 5-FU-treated vs un-treated Meth A cells (AUC) in mice previously immunized with 5-FU-treated 4T1 cells: significantly lower
4T1 tumor cells
  growth of 5-FU treated vs un-treated 4T1 cells in vivo (AUC): grow essentially identically
4T1 tumor cells; listed as 5FU
  growth of 5-FU treated vs un-treated 4T1 cells in vivo (AUC): grow the same
4T1 cells
  number of genes with overexpressed introns in 5-FU treated 4T1 samples: 804 genes
  number of introns overexpressed in 5-FU treated 4T1 samples: 991 introns

Reference: patent publication US20210381060A1, “CANCER SPECIFIC IMMUNOTHERAPEUTIC TARGETS GENERATED BY CHEMOTHERAPEUTIC DRUG TREATMENT” (Health Research, Inc., priority 2018, published 2021)
